Laboratory results as given in PubChem BioAssay (NCI).
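Cells were grown in 96-well plates and exposed to each compound for 48 hours at five concentrations; endpoints were interpolated linearly between bracketing concentrations, or set to the highest concentration if not reached. Abbreviation: GI50, concentration required for 50% inhibition of growth. At the TGI there is no net growth.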

Key:
Assay in all cases: NCI-60 cell line screen, 48 h
A549 NSCLC = system: A549 NSCLC
MDA-MB-435 = system: MDA-MB-435
UACC-257 melanoma = system: UACC-257 melanoma
UO-31 renal = system: UO-31 renal
NCI-H226 lung = system: NCI-H226 lung
NCI-H460 lung = system: NCI-H460 lung
CCRF-CEM leukemia = system: CCRF-CEM leukemia
TK-10 renal = system: TK-10 renal
OVCAR-5 ovarian = system: OVCAR-5 ovarian
SK-MEL-2 melanoma = system: SK-MEL-2 melanoma

SMILES | TGI (A549 NSCLC) | TGI (MDA-MB-435) | TGI (UACC-257 melanoma) | TGI (UO-31 renal) | TGI (NCI-H226 lung) | TGI (NCI-H460 lung) | TGI (CCRF-CEM leukemia) | TGI (TK-10 renal) | TGI (OVCAR-5 ovarian) | TGI (SK-MEL-2 melanoma) | GI50 (A549 NSCLC) | GI50 (SK-MEL-2 melanoma) | GI50 (UO-31 renal) | GI50 (NCI-H226 lung) | GI50 (NCI-H460 lung) | GI50 (CCRF-CEM leukemia) | GI50 (TK-10 renal) | GI50 (OVCAR-5 ovarian) | GI50 (MDA-MB-435) | GI50 (UACC-257 melanoma)
CC(=O)c1cccc(NC(=O)C(=O)c2c(O)c3ccccc3oc2=O)c1 | > 100 µM | > 100 µM | > 100 µM | > 100 µM | > 100 µM | > 100 µM | > 100 µM | > 100 µM | > 100 µM | – | – | – | – | – | – | – | – | – | – | –
O=C1c2ccccc2C(=O)C12CCc1ccccc12 | > 100 µM | – | – | > 100 µM | – | > 100 µM | > 100 µM | > 100 µM | – | – | – | – | – | – | – | – | – | – | – | –
CO[C@H]1/C=C/O[C@@]2(C)Oc3c(C)c(O)c4c(O)c(c(/C=N/N5CCN(C)CC5)c(O)c4c3C2=O)NC(=O)/C(C)=C\C=C\[C@H](C)[C@H](O)[C@@H](C)[C@@H](O)[C@@H](C)[C@H](OC(C)=O)[C@@H]1C | > 100 µM | > 100 µM | > 100 µM | > 100 µM | – | > 100 µM | 81.8 µM | > 100 µM | > 100 µM | > 100 µM | – | – | – | – | – | – | – | – | – | –
Cc1cc(NCc2cc(Nc3ccnc4cc(Cl)ccc34)ccc2F)nc(N2CCOCC2)n1 | 21 µM | – | – | 2.71 µM | 5.61 µM | 4.77 µM | 34.6 µM | 3.92 µM | 6.97 µM | 4.7 µM | 3.89 µM | 1.99 µM | 1.3 µM | 1.89 µM | 2 µM | 2.53 µM | 1.96 µM | 2.45 µM | – | –
CN/N=C(/c1nc2ccc([N+](=O)[O-])cc2[nH]c1=O)C(O)c1ccc(C(O)/C(=N\NC)c2nc3ccc([N+](=O)[O-])cc3[nH]c2=O)cc1 (centres undefined) | > 100 µM | – | > 100 µM | > 100 µM | > 100 µM | > 100 µM | > 100 µM | > 100 µM | > 100 µM | > 100 µM | – | – | – | – | – | – | – | – | – | –
CC(NC(=O)Cc1ccc(C(F)(F)P(=O)(OCc2ccc([N+](=O)[O-])o2)N(C)CCCCCl)cc1)c1ccc(OCC2CCCCC2)c(C(N)=O)c1 (centres undefined) | 58.7 µM | 6.73 µM | 34.7 µM | 21.9 µM | 15.1 µM | 26.2 µM | – | 22.2 µM | 33.1 µM | > 48.5 µM | 14.5 µM | 6.48 µM | 7.74 µM | 5.52 µM | 8.26 µM | – | 8.01 µM | 15.6 µM | 2.69 µM | 17.5 µM
COc1ccc(O)c(C(=O)CCC(=O)O)c1 | > 100 µM | – | 29 µM | > 100 µM | > 100 µM | > 100 µM | > 100 µM | > 100 µM | > 100 µM | > 100 µM | – | – | – | – | – | – | – | – | – | –
CCC1=CCN(c2cc(C)ccn2)OC1c1ccccc1 (centres undefined) | > 100 µM | – | > 100 µM | > 100 µM | > 100 µM | > 100 µM | > 100 µM | – | > 100 µM | 43.7 µM | – | – | – | – | – | – | – | – | – | –
C1=Cc2nc1c(-c1ccccc1)c1ccc([nH]1)c(-c1ccccc1)c1nc(c(-c3ccccc3)c3ccc([nH]3)c2-c2ccccc2)C=C1 | > 100 µM | – | > 100 µM | > 100 µM | > 100 µM | > 100 µM | > 100 µM | > 100 µM | > 100 µM | > 100 µM | – | – | – | – | – | – | – | – | – | –
CCOC(=O)C1Cc2ccc3c4c(ccc(c24)C1)CC(C(=O)OCC)C3 | > 100 µM | – | > 100 µM | > 100 µM | > 100 µM | – | > 100 µM | > 100 µM | > 100 µM | > 100 µM | – | – | – | – | – | – | – | – | – | –
CC(=O)OC(C(=O)[O][Sn]([CH3])([CH3])[CH3])c1ccccc1 (centres undefined) | > 100 µM | – | > 100 µM | > 100 µM | > 100 µM | > 100 µM | > 100 µM | > 100 µM | > 100 µM | – | > 100 µM | – | > 100 µM | > 100 µM | > 100 µM | 63.4 µM | > 100 µM | > 100 µM | – | > 100 µM
COc1ccc(Nc2nc(Nc3cc(C)[nH]n3)c3cc(OC)c(OC)cc3n2)cc1 | – | 2.58 µM | – | 2.93 µM | – | 2.09 µM | – | – | 3.74 µM | 3.56 µM | – | 1.77 µM | 1.45 µM | – | 0.569 µM | – | – | 2 µM | 1.23 µM | –
COc1ccc(-c2cnnn2-c2nonc2-n2cccc2)cc1OC | > 100 µM | 3.01 µM | > 100 µM | > 100 µM | > 100 µM | > 100 µM | > 100 µM | > 100 µM | > 100 µM | – | 4.15 µM | – | 6.27 µM | 16.2 µM | 3.75 µM | 3.3 µM | 22.6 µM | 17.8 µM | 0.716 µM | 9.61 µM
COc1cc(OC)c2sc(-c3ccc(-n4cncc4-c4ccc(OC)c(OC)c4)cc3)nc2c1 | > 100 µM | – | > 100 µM | – | > 100 µM | > 100 µM | > 100 µM | > 100 µM | > 100 µM | > 100 µM | 41.8 µM | 41.4 µM | – | 6.44 µM | 6.06 µM | > 100 µM | 31.7 µM | > 100 µM | – | > 100 µM
CN(C)c1ccc(/C=C(\NC(=O)c2ccccc2)c2nc3ccc4c(c3[nH]2)C(=O)c2ccccc2C4=O)cc1 | > 100 µM | – | > 100 µM | 7.37 µM | – | > 100 µM | > 100 µM | > 100 µM | > 100 µM | > 100 µM | – | – | – | – | – | – | – | – | – | –
CC(=O)c1ccc(NC(=O)C(=O)C(C(=O)/C=C/c2ccccc2)C2OC(=O)c3ccccc32)cc1 (centres undefined) | > 100 µM | – | > 100 µM | > 100 µM | > 100 µM | > 100 µM | > 100 µM | > 100 µM | > 100 µM | > 100 µM | – | – | – | – | – | – | – | – | – | –
CCN1[C@@H](C(=O)NC23CCC(C(=O)O)(CC2)CC3)[C@H](c2cccc(Cl)c2F)[C@]2(C(=O)Nc3cc(Cl)ccc32)C12CCCCC2 | 7.03 µM | 10.7 µM | 1.86 µM | 3.6 µM | – | 1.45 µM | 13.2 µM | 16.2 µM | 17.8 µM | 5.18 µM | 0.177 µM | 2.02 µM | 0.0779 µM | – | 0.0909 µM | 2.98 µM | 3.05 µM | 3.74 µM | 2.92 µM | 0.228 µM
COC(=O)C(=O)C(CC(=O)Nc1ccc(C)cc1)C(=O)OC (centres undefined) | > 100 µM | – | > 100 µM | > 100 µM | > 100 µM | > 100 µM | > 100 µM | > 100 µM | > 100 µM | > 100 µM | – | – | – | – | – | – | – | – | – | –
